From the supplement of paper PMC10307832

How the values were obtained:
Assay in all cases: relative viability (nuclei count vs DMSO), 5 days (fraction); higher = more cells survive
Decitabine + Olaparib = compound: Nc1ncn([C@H]2C[C@H](O)[C@@H](CO)O2)c(=O)n1 [Decitabine] + O=C(c1cc(Cc2n[nH]c(=O)c3ccccc23)ccc1F)N1CCN(C(=O)C2CC2)CC1 [Olaparib] (partner 8 µM)
Procedure, shortened: (§1)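 After 5 days of treatment, lung cancer cells in 1536-well plates were fixed and stained in a single step (final 0.05% Triton X-100, 1% formaldehyde, 1 ug/ml Hoechst) and their nuclei counted on 4× images. Treatment had been applied by pin tool the day after seeding as one drug alone or as a fixed anchor-drug dose with five library-drug doses (not always all listed) in √10 steps. Relative viability is the nuclei count of treated wells divided by that of vehicle wells, and values are medians of duplicate plates.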

Cediranib + Navitoclax = compound: COc1cc2c(Oc3ccc4[nH]c(C)cc4c3F)ncnc2cc1OCCCN1CCCC1 [Cediranib] + CC1(C)CCC(c2ccc(Cl)cc2)=C(CN2CCN(c3ccc(C(=O)NS(=O)(=O)c4ccc(N[C@H](CCN5CCOCC5)CSc5ccccc5)c(S(=O)(=O)C(F)(F)F)c4)cc3)CC2)C1 [Navitoclax] (partner 0.5 µM)
Procedure, shortened: as §1

Cediranib + Alpelisib = compound: COc1cc2c(Oc3ccc4[nH]c(C)cc4c3F)ncnc2cc1OCCCN1CCCC1 [Cediranib] + Cc1nc(NC(=O)N2CCC[C@H]2C(N)=O)sc1-c1ccnc(C(C)(C)C(F)(F)F)c1 [Alpelisib] (partner 2 µM)
Procedure, shortened: as §1

Decitabine + AZD7762 = compound: Nc1ncn([C@H]2C[C@H](O)[C@@H](CO)O2)c(=O)n1 [Decitabine] + NC(=O)Nc1cc(-c2cccc(F)c2)sc1C(=O)N[C@H]1CCCNC1 [AZD7762] (partner 0.2 µM)
Procedure, shortened: as §1

Row | Cell Line | relative viability (Decitabine + Olaparib; first compound 0.04 µM) | relative viability (Decitabine + Olaparib; first compound 0.1265 µM) | relative viability (Decitabine + Olaparib; first compound 0.4 µM) | relative viability (Decitabine + Olaparib; first compound 1.265 µM) | relative viability (Decitabine + Olaparib; first compound 4 µM) | relative viability (Cediranib + Navitoclax; first compound 0.04 µM) | relative viability (Cediranib + Navitoclax; first compound 0.1265 µM) | relative viability (Cediranib + Navitoclax; first compound 0.4 µM) | relative viability (Cediranib + Navitoclax; first compound 1.265 µM) | relative viability (Cediranib + Navitoclax; first compound 4 µM) | relative viability (Cediranib + Alpelisib; first compound 0.04 µM) | relative viability (Cediranib + Alpelisib; first compound 0.1265 µM) | relative viability (Cediranib + Alpelisib; first compound 0.4 µM) | relative viability (Cediranib + Alpelisib; first compound 1.265 µM) | relative viability (Cediranib + Alpelisib; first compound 4 µM) | relative viability (Decitabine + AZD7762; first compound 0.04 µM) | relative viability (Decitabine + AZD7762; first compound 0.1265 µM) | relative viability (Decitabine + AZD7762; first compound 0.4 µM) | relative viability (Decitabine + AZD7762; first compound 1.265 µM) | relative viability (Decitabine + AZD7762; first compound 4 µM)
1 | NCI-H2023 | 0.137 | 0.15 | 0.126 | 0.0911 | 0.0823 | 0.997 | 1.02 | 1.01 | 0.997 | 0.988 | 0.667 | 0.706 | 0.58 | 0.559 | 0.667 | – | – | – | – | –
2 | EBC-1 | 0.318 | 0.197 | 0.187 | 0.157 | 0.18 | 0.388 | 0.441 | 0.37 | 0.52 | 0.455 | 0.857 | 1.01 | 0.762 | 0.719 | 1.02 | – | – | – | – | –
3 | NCI-H1666 | 0.65 | 0.698 | 0.723 | 0.619 | 0.651 | 0.875 | 1 | 0.989 | 1.09 | 1.1 | 1.04 | 0.995 | 0.875 | 0.924 | 0.962 | 0.826 | 0.872 | 0.696 | 0.787 | 0.763
4 | NCI-H1975 | 0.292 | 0.266 | 0.232 | 0.193 | 0.174 | 1.18 | 1.13 | 0.956 | 1.19 | 1.21 | 0.716 | 0.621 | 0.619 | 0.677 | 0.591 | 0.451 | 0.451 | 0.441 | 0.465 | 0.403
5 | NCI-H2170 | 0.271 | 0.201 | 0.216 | 0.137 | 0.134 | 0.691 | 0.671 | 0.567 | 0.61 | 0.713 | 0.823 | 0.901 | 0.744 | 0.748 | 0.882 | 0.412 | 0.52 | 0.554 | 0.268 | 0.245
6 | NCI-H1355 | 0.33 | 0.348 | 0.245 | 0.194 | 0.195 | 0.94 | 0.954 | 0.898 | 0.936 | 1.04 | 0.993 | 0.879 | 0.704 | 0.838 | 0.956 | 0.442 | 0.473 | 0.376 | 0.267 | 0.241
7 | NCI-H1648 | 0.679 | 0.516 | 0.484 | 0.424 | 0.301 | – | – | – | – | – | – | – | – | – | – | 0.692 | 0.672 | 0.469 | 0.448 | 0.428
8 | A549 | 0.15 | 0.112 | 0.049 | 0.0246 | 0.0404 | 1.29 | 1.34 | 1.23 | 1.25 | 1.24 | 0.698 | 0.947 | 0.654 | 0.701 | 0.869 | – | – | – | – | –
9 | SK-MES-1 | 0.288 | 0.362 | 0.299 | 0.179 | 0.244 | 1.23 | 1.36 | 1.13 | 1.21 | 1.2 | 0.835 | 0.916 | 0.8 | 0.924 | 1.02 | – | – | – | – | –
10 | EKVX | 0.551 | 0.454 | 0.322 | 0.252 | 0.232 | 1.01 | 0.74 | 0.912 | 0.903 | 1.02 | 0.961 | 1.2 | 0.849 | 0.879 | 0.836 | 0.505 | 0.611 | 0.549 | 0.394 | 0.33
11 | RERF-LC-KJ | 0.615 | 0.608 | – | 0.448 | 0.495 | 0.974 | 1.29 | 0.756 | 0.926 | 0.734 | 0.771 | – | 0.769 | 0.761 | 0.739 | 0.822 | 0.95 | 0.439 | 0.75 | 0.832
12 | NCI-H1755 | 0.648 | 0.609 | 0.43 | 0.359 | 0.365 | 1.05 | 1 | 0.974 | 0.998 | 1.07 | 1 | 0.919 | 0.854 | 0.918 | 1.01 | 0.634 | 0.463 | 0.56 | 0.467 | 0.419
13 | NCI-H661 | 0.56 | 0.459 | 0.409 | 0.345 | 0.338 | – | – | – | – | – | 0.633 | 1.03 | 0.631 | 0.522 | 0.588 | – | – | – | – | –
14 | LOU-NH91 | 0.667 | 0.742 | 0.649 | 0.577 | 0.601 | 0.673 | 0.635 | 0.665 | 0.706 | 0.544 | 0.702 | 0.952 | 0.695 | 0.672 | 0.615 | 0.735 | 0.847 | 0.732 | 0.72 | 0.73
15 | LXF-289 | 0.302 | 0.255 | 0.203 | 0.157 | 0.128 | 0.97 | 0.878 | 0.948 | 0.926 | 0.957 | 1.08 | 0.971 | 0.995 | 1.05 | 1.04 | 0.82 | 0.756 | 0.47 | 0.316 | 0.332
16 | HCC-44 | 0.808 | 0.738 | 0.627 | 0.739 | 0.757 | 0.972 | – | 1.01 | 0.965 | 1.11 | 0.754 | – | 0.731 | 0.784 | 0.898 | 1.08 | 0.974 | 0.932 | 1.06 | 1.06
17 | HARA | 0.379 | 0.248 | 0.28 | 0.147 | 0.168 | 1.16 | 1.03 | 1.15 | 1.14 | 1.18 | 0.844 | 1.14 | 0.837 | 0.857 | 1.01 | 0.353 | 0.464 | 0.165 | 0.203 | 0.315
18 | 201T | 0.555 | 0.494 | 0.406 | – | 0.781 | 1.25 | 1.28 | 1.15 | 1.2 | 1.21 | 1.03 | 1.24 | 1.04 | 0.992 | 1.03 | 0.463 | 0.514 | 0.38 | – | 0.353
